Results taken from article PMC5856786, “A DHODH inhibitor increases p53 synthesis and enhances tumor cell killing by p53 degradation blockage” (Nature Communications, 2018).

Legend:
CDK5/p25NCK = biological target: T1, CDK5/p25NCK (Homo sapiens, UniProt Q00535); assay: biochemical; set-up: radiometric 33PanQinase protein kinase activity assay, CDK/cyclin panel, per cent remaining activity; settings: read-out: HZ00 10 µM Average (% remaining activity)
T1 construct: p25
Text: (§1) Supplementary Table 1. In vitro inhibition (% remaining activity) of cyclin-dependent
(§2) ProQinase GmbH (Freiburg, Germany) using a radiometric protein kinase assay
(§3) (33PanQinase® Activity Assay).
(§4) (1 picture or pasted object on this page, not shown here) 32 Supplementary Table 1. In vitro inhibition (% remaining activity) of cyclin-dependent kinases (CDKs).

CDK1/CycE1 = CDK1/CycE1 (Homo sapiens, UniProt P06493); assay: biochemical; set-up: radiometric 33PanQinase protein kinase activity assay, CDK/cyclin panel, per cent remaining activity; settings: read-out: HZ00 10 µM Average (% remaining activity)
Text: as §1, §2, §3, §4

CDK2/CycE1 = CDK2/CycE1 (Homo sapiens, UniProt P24941); assay: biochemical; set-up: radiometric 33PanQinase protein kinase activity assay, CDK/cyclin panel, per cent remaining activity; settings: read-out: HZ00 10 µM Average (% remaining activity)
Text: as §1, §2, §3, §4

PCTAIRE1/CycY = biological target: T2, PCTAIRE1/CycY (Homo sapiens, UniProt Q00536); assay: biochemical; set-up: radiometric 33PanQinase protein kinase activity assay, CDK/cyclin panel, per cent remaining activity; settings: read-out: HZ00 10 µM Average (% remaining activity)
T2 construct: gene CDK16
T2 sequence (Q00536 whole entry): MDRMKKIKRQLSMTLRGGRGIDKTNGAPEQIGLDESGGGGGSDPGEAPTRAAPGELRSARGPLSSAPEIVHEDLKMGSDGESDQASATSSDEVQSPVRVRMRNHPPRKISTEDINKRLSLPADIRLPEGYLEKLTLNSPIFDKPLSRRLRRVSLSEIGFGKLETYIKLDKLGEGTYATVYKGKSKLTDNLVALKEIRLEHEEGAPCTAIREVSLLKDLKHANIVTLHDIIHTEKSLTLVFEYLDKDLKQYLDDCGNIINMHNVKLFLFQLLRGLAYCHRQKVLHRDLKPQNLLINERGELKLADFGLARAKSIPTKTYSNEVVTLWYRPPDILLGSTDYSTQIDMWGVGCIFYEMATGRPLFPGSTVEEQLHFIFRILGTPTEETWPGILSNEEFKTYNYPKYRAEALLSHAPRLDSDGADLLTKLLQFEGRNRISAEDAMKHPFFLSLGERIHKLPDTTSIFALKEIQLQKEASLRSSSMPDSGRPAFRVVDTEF
T2 sequence (Q8ND76 whole entry partner): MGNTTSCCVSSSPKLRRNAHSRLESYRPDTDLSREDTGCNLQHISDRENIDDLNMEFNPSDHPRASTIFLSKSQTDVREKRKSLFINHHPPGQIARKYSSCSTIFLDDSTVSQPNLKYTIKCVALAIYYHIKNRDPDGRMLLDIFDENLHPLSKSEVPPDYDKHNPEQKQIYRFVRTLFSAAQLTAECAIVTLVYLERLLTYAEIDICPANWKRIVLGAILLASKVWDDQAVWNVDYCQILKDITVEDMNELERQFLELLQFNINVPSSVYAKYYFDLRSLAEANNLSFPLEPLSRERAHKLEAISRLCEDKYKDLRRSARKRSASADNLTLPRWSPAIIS
Text: as §1, §2, §3, §4

CDK7/CycH/MAT1 = CDK7/CycH/MAT1 (Homo sapiens, UniProt P50613); assay: biochemical; set-up: radiometric 33PanQinase protein kinase activity assay, CDK/cyclin panel, per cent remaining activity; settings: read-out: HZ00 10 µM Average (% remaining activity)
Sequence of CDK7/CycH/MAT1 (P50613 whole entry): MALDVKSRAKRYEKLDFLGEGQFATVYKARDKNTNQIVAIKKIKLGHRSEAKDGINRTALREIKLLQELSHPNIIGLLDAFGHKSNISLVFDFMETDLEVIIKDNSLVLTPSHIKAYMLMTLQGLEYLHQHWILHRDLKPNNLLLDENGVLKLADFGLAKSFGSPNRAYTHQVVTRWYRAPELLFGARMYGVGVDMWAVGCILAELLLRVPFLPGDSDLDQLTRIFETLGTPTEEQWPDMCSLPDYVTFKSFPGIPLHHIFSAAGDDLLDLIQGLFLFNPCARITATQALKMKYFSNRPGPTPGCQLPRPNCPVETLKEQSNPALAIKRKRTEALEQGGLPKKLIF
Sequence of CDK7/CycH/MAT1 (P51946 whole entry partner): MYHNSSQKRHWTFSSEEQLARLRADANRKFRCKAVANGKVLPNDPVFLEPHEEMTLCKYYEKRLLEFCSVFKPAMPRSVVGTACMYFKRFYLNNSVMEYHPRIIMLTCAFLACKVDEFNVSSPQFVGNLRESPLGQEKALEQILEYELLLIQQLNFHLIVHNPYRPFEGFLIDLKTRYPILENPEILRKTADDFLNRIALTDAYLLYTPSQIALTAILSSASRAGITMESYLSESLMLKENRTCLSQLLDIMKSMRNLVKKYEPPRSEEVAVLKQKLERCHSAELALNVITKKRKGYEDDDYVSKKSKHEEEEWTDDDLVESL
Sequence of CDK7/CycH/MAT1 (P51948 whole entry partner): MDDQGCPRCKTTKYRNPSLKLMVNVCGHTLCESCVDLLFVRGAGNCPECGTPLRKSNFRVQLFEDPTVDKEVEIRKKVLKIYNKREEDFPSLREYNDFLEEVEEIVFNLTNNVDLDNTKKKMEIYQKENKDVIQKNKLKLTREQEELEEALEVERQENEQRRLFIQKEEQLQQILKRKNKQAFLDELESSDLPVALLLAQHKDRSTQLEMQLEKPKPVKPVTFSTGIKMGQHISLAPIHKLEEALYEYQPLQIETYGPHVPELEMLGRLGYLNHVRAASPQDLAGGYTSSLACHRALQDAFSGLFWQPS
Text: as §1, §2, §3, §4

CDK1/CycB1 = CDK1/CycB1 (Homo sapiens, UniProt P06493); assay: biochemical; set-up: radiometric 33PanQinase protein kinase activity assay, CDK/cyclin panel, per cent remaining activity; settings: read-out: HZ00 10 µM Average (% remaining activity)
Text: as §1, §2, §3, §4

CDK6/CycD1 = CDK6/CycD1 (Homo sapiens, UniProt Q00534); assay: biochemical; set-up: radiometric 33PanQinase protein kinase activity assay, CDK/cyclin panel, per cent remaining activity; settings: read-out: HZ00 10 µM Average (% remaining activity)
Sequence of CDK6/CycD1 (Q00534 whole entry): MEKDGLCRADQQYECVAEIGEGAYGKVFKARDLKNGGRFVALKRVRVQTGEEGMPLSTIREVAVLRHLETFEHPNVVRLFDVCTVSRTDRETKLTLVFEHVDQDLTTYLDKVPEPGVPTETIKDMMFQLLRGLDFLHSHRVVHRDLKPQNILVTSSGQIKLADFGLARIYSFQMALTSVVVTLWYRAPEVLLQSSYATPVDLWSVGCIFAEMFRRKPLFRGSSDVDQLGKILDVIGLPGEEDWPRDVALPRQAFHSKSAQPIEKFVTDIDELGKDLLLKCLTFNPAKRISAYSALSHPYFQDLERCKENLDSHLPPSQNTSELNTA
Sequence of CDK6/CycD1 (P24385 whole entry partner): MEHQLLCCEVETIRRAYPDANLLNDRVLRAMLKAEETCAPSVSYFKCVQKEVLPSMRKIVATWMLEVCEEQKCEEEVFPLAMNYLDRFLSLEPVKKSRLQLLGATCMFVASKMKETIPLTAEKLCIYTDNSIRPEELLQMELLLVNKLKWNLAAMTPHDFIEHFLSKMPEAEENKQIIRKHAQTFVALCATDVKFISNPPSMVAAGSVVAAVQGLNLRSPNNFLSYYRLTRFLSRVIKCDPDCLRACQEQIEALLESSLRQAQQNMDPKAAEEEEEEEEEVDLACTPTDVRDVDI
Text: as §1, §2, §3, §4

CDK9/CycK = CDK9/CycK (Homo sapiens, UniProt P50750); assay: biochemical; set-up: radiometric 33PanQinase protein kinase activity assay, CDK/cyclin panel, per cent remaining activity; settings: read-out: HZ00 10 µM Average (% remaining activity)
Text: as §1, §2, §3, §4

CDK2/CycA2 = CDK2/CycA2 (Homo sapiens, UniProt P24941); assay: biochemical; set-up: radiometric 33PanQinase protein kinase activity assay, CDK/cyclin panel, per cent remaining activity; settings: read-out: HZ00 10 µM Average (% remaining activity)
Text: as §1, §2, §3, §4

CDK4/CycD1 = CDK4/CycD1 (Homo sapiens, UniProt P11802); assay: biochemical; set-up: radiometric 33PanQinase protein kinase activity assay, CDK/cyclin panel, per cent remaining activity; settings: read-out: HZ00 10 µM Average (% remaining activity)
Sequence of CDK4/CycD1 (P11802 whole entry): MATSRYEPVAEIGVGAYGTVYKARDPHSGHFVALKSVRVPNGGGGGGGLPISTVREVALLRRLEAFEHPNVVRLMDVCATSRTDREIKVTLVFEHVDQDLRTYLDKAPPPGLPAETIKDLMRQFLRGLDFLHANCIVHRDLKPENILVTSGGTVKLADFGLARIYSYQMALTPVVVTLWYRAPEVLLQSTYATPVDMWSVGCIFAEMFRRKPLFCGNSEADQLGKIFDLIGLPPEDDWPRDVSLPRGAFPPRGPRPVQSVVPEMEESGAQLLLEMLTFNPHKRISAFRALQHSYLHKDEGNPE
Sequence of CDK4/CycD1 (P24385 whole entry partner): as the sequence (P24385 whole entry partner) above
Text: as §1, §2, §3, §4

CDK5/p35NCK = biological target: T3, CDK5/p35NCK (Homo sapiens, UniProt Q00535); assay: biochemical; set-up: radiometric 33PanQinase protein kinase activity assay, CDK/cyclin panel, per cent remaining activity; settings: read-out: HZ00 10 µM Average (% remaining activity)
T3 construct: p35
T3 sequence (Q00535 whole entry): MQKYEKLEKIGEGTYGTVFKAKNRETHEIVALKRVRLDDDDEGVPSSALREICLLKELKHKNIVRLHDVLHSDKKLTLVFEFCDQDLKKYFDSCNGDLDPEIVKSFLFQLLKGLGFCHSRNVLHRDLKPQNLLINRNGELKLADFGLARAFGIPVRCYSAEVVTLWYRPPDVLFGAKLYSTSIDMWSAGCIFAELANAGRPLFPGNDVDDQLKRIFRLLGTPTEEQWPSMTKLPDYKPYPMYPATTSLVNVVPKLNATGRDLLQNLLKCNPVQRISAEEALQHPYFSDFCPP
T3 sequence (Q15078 whole entry partner): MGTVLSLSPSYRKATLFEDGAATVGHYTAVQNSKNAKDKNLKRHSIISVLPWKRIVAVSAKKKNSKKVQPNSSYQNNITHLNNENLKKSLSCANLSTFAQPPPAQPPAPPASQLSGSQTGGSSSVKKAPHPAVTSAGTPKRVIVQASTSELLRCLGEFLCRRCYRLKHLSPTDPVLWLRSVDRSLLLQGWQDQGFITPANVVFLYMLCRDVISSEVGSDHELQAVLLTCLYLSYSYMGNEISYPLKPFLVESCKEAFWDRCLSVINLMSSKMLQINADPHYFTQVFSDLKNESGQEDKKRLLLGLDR
Text: as §1, §2, §3, §4

CDK8/CycC = CDK8/CycC (Homo sapiens, UniProt P49336); assay: biochemical; set-up: radiometric 33PanQinase protein kinase activity assay, CDK/cyclin panel, per cent remaining activity; settings: read-out: HZ00 10 µM Average (% remaining activity)
Sequence of CDK8/CycC (P49336 whole entry): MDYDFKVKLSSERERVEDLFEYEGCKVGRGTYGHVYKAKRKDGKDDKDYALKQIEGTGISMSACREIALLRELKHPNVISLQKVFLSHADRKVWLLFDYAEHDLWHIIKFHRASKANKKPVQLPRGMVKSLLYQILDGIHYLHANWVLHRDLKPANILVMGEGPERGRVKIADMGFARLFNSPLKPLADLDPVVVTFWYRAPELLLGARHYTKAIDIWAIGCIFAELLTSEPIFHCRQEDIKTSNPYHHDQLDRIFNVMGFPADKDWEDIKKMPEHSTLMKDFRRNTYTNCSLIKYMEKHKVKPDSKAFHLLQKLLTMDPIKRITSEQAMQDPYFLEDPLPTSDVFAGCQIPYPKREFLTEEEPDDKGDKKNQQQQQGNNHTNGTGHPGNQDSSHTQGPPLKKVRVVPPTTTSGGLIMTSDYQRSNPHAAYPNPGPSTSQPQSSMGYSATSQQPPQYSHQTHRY
Sequence of CDK8/CycC (P24863 whole entry partner): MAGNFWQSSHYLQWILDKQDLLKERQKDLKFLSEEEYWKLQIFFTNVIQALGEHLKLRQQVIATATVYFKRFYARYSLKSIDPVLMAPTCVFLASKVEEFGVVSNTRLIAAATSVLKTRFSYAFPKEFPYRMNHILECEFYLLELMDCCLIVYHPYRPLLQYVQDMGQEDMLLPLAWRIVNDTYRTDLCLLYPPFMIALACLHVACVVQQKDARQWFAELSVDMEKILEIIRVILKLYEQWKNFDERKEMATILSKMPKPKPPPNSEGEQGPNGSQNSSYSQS
Text: as §1, §2, §3, §4

CDK3/CycE1 = CDK3/CycE1 (Homo sapiens, UniProt Q00526); assay: biochemical; set-up: radiometric 33PanQinase protein kinase activity assay, CDK/cyclin panel, per cent remaining activity; settings: read-out: HZ00 10 µM Average (% remaining activity)
Text: as §1, §2, §3, §4

CDK4/CycD3 = CDK4/CycD3 (Homo sapiens, UniProt P11802); assay: biochemical; set-up: radiometric 33PanQinase protein kinase activity assay, CDK/cyclin panel, per cent remaining activity; settings: read-out: HZ00 10 µM Average (% remaining activity)
Sequence of CDK4/CycD3 (P11802 whole entry): as the sequence (P11802 whole entry) above
Sequence of CDK4/CycD3 (P30281 whole entry partner): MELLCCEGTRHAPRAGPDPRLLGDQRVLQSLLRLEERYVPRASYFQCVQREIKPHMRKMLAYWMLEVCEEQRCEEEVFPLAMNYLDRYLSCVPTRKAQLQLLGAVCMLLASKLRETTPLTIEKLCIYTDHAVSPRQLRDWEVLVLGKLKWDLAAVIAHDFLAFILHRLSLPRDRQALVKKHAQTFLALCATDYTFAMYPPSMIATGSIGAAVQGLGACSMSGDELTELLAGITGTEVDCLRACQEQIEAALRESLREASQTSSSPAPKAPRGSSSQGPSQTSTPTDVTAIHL
Text: as §1, §2, §3, §4

[1] = test system: p53-induced mRNAs in ARN8 cells; assay: q-RT-PCR of p53-induced mRNAs and p53 mRNA; assay type: cell-based, human
Description: Supplementary Figure 1. HZ compounds increase the levels of p53-induced mRNAs. a) p53-null H1299 cells were transfected with the RGCΔ FosLacZ reporter construct and levels of p53-dependent transcription were determined by CPRG assay following a 16 h exposure to HZ00. A vector expressing wild-type p53 was used as a positive control. The average of three […]
for 1 hour prior to treatment with 2 µM nutlin-3 for an additional 18 hours. Levels of p53-induced mRNAs and p53 mRNA were determined by q-RT-PCR. tbp was used as a control.
Values correspond to the average of three technical repeats with standard deviation used for error. RNA extraction and q-RT-PCR were performed as previously described - see supplementary information7. c) HCT116 p53 wild-type or p53 deficient cells were treated […]
supplementary information for cell line description8. d) ARN8 cells treated for 6 hours with HZ00 at indicated doses. Levels of p53 mRNA were determined by q-RT-PCR. […]

MV411 cells = assay: PI flow cytometry, sub-G1 cells, MV411; assay type: cell-based
Description: Cell cycle distribution analysis was performed on a Becton Dickinson FACScan flow cytometer or FACSCalibur (BD Biosciences) following staining with propidium iodide (PI) or dual labeling with BrdU and PI[36]. These assays were analyzed using CellQuest Pro (BD Biosciences).

T1 sequence (Q00535 whole entry): as the sequence (Q00535 whole entry) above
T1 sequence (Q15078 whole entry partner): as the sequence (Q15078 whole entry partner) above

remaining activity at 10 µM (CDK5/p25NCK)	remaining activity at 10 µM (CDK1/CycE1)	remaining activity at 10 µM (CDK2/CycE1)	remaining activity at 10 µM (PCTAIRE1/CycY)	remaining activity at 10 µM (CDK7/CycH/MAT1)	remaining activity at 10 µM (CDK1/CycB1)	remaining activity at 10 µM (CDK6/CycD1)	remaining activity at 10 µM (CDK9/CycK)	remaining activity at 10 µM (CDK2/CycA2)	remaining activity at 10 µM (CDK4/CycD1)	remaining activity at 10 µM (CDK5/p35NCK)	remaining activity at 10 µM (CDK8/CycC)	remaining activity at 10 µM (CDK3/CycE1)	remaining activity at 10 µM (CDK4/CycD3)	Structure (SMILES)	mRNA of p53 target genes [1]	sub-G1 cells (MV411 cells; HZ05 1 μM 72 h + 48 h, 2 μM nutlin-3a last 48 h)	sub-G1 cells (MV411 cells; HZ05 1 μM 72 h + 48 h, DMSO last 48 h)	sub-G1 cells (MV411 cells; HZ05 1 μM, 72 h treatment)	sub-G1 cells (MV411 cells; HZ05 2.5 μM, 72 h treatment)
104%	101%	102%	103%	96.2%	104%	103%	100%	96%	104%	105%	95.2%	96.6%	89.2%	O=C(NC1CCCc2c1cnn2-c1ccccc1F)c1ccccn1 (stereo not shown) [HZ00]	raised the mRNA of p53 target genes				
														O=C(NC1CCCc2c1cnn2-c1ccccc1F)c1onc2c1CCCC2 (stereo not shown) [HZ05]		65.4%	30.2%	5.5%	6.2%
